Values of other authors in US20090318371A1 (priority 2006, published 2009).

What was measured:
[1] = topical administration
[2] = system: human polymorphonuclear leukocyte chemotactic and chemokinetic responses; settings: in vivo and in vitro
[3] = clinical studies
[4] = system: Propionibacterium acnes
[5] = Ames test
[6] = clinical phase I
[7] = topical application to mice for 21 months
[8] = Phase III clinical studies
[9] = Ames, chromosomal aberration and micronuclei
[10] = during the following 10 hours of topical administration
[11] = multiple topical administrations, equivalent to 10 mg/ml in water and isopropyl alcohol solution

For COc1ccc(-c2ccc3cc(C(=O)O)ccc3c2)cc1C12CC3CC(CC(C3)C1)C2 [Adapalene], the “Presence of Adapalene compared to Tretinoin on the dermis” value ([1]; dermis) is listed as −37%, the “Presence of Adapalene compared to Tretinoin on the epidermis” value ([1]; epidermis) is listed as “+51%” and the “Presence of Adapalene compared to Tretinoin in receptor fluid” value ([1]; receptor fluid) is listed as −71%. The “Anti-inflammatory activity compared to other topical retinoids” value [2] was “superior to other topical retinoids” and the Plasma levels [3] was “no significant plasma levels were detected”.

In the case of O=C(OOC(=O)c1ccccc1)c1ccccc1 [Benzoyl peroxide], the “Activity against Propionibacterium acnes” value [4] is given as “effective against Propionibacterium acnes” and the Mutagenicity [5] is given as “not mutagenic”.

For CCC[C@@H]1C[C@@H](C(=O)N[C@@H]([C@H]2O[C@H](SC)[C@H](O)[C@@H](O)[C@H]2O)[C@H](C)Cl)N(C)C1 [Clindamycin], the “Binding to plasma proteins” value (in vivo) is given as “Ninety percent or more” and the “Share of administered clindamycin excreted intact in urine” value (urine) is given as 10%.

In the case of CCOC(=O)c1ccc(C#Cc2ccc3c(c2)C(C)(C)CCS3)nc1 [Tazarotene], the “Sensitization, phototoxicity or photoallergicity” value [6] is listed as “does not cause sensitization, phototoxicity or photoallergicity”, the Carcinogenic effects [7] is listed as “non-carcinogenic effects” and the Adverse effects reported [8] is listed as “burning sensation, skin scaling and dryness”. For the same molecule, the “Mutagenicity, clastogenic or chromosomal effects” value [9] was “not mutagenic and has no clastogenic or chromosomal effects” and the “Absorption, share of the dose absorbed” value [10] was “Less than 6.0%”.

For CCC[C@@H]1C[C@@H](C(=O)N[C@@H]([C@H]2O[C@H](SC)[C@H](OP(=O)(O)O)[C@@H](O)[C@H]2O)[C@H](C)Cl)N(C)C1 [clindamycin phosphate, Clindamycin phosphate], the “Share of the dosage recovered in urine as clindamycin” value [11] is listed as “less than 0.2%”.
